Earlier results as cited in patent publication US20190142336A1, “SYSTEMS AND METHODS FOR DETERMINING RESPONSE TO ANESTHETIC AND SEDATIVE DRUGS USING MARKERS OF BRAIN FUNCTION” (THE GENERAL HOSPITAL CORPORATION, priority 2016, published 2019).

Assays:
[1] = tested on: dopamine and norepinephrine reuptake transporters
[2] = plethysmography and blood gas

## O=C(CCCN1CC=C(n2c(=O)[nH]c3ccccc32)CC1)c1ccc(F)cc1 [droperidol]
[1]; given against methylphenidate-induced arousal
  behavioral and respiratory effects induced by methylphenidate: inhibited

## COC(=O)C(c1ccccc1)C1CCCCN1 (stereo not drawn) [methylphenidate]
[2]
  minute ventilation: increases minute ventilation
[1]; isoflurane general anesthesia
  emergence from general anesthesia: actively induces emergence
